Laboratory results reported in US20120040976A1, “SMALL MOLECULE IMMUNOMODULATORS FOR ALZHEIMER'S DISEASE” (HUMAN BIOMOLECULAR RESEARCH INSTITUTE, priority 2008, published 2012).

Legend:
TLR2 = TLR2 gene expression by qPCR in U-937 human monocytic cells treated with curcumins plus Aβ; assay type: cell-based; settings: human monocytic cells (U-937), curcumin plus Aβ
Protocol: (§1) Cell culture conditions for monocytic cell lines. Human and mouse monocyte cell lines are grown in RPMI-1640 medium with 10% fetal bovine serum (FBS), plus glutamine and pen/strep. For treatment with compounds (curcuminoids+/−Aβ), replicate sets of 0.5-1.0 mL cultures containing 1-2×10^6 cells are set up in the wells of 48-well tissue culture plates. Both replicate sets have at least one control well receiving no added curcuminoid to provide baseline expression controls for untreated, and Aβ-only treated cells. Remaining wells receive curcuminoid in a range of 10-fold serial dilutions in DMSO, typically from […] Cultures are incubated for 20-24 hours (“overnight”) at 37° C. in atmosphere with 5% CO2. After one overnight, to one of replicate sets of cultures is added Aβ (1-42) peptide to a final concentration of 5 μg/mL.
(§2) RNA isolation and cDNA synthesis. After the first overnight incubation in the presence of curcuminoid, cells from one replicate set of wells are collected by centifugation. RNAs are extracted from pelleted cells using miniprep column kits following manufacturer's protocol for animal cells. […] of total cellular RNA from each well is quantitated using a Nanodrop spectrophotometer, and first-strand total cDNA is prepared from 0.3-1.0 μg RNA by random-hexamer priming. Following the second 20 hr. incubation in the presence of Aβ, RNA extractions and cDNA synthesis are similarly performed.
(§3) Assay development. Gene-specific mRNA levels are determined using a real-time thermocycler, and by normalizing to expression of one or more control genes. Assays for quantifying mRNA levels are based on gene sequences reported in NCBI Genbank. PCR oligonucleotide primers are selected spanning introns to minimize the opportunity for amplication from any contaminating genomic DNA in the RNA preps. Oligonucleotides are typically tested and used at a concentration of 200 nM in qPCR reactions containing SYBR dye. Control reactions include template from cDNA synthesis reactions either + or − reverse transcriptase (RT), as well as no-template controls (ntc). All reactions are performed in triplicate. Reactions are typically run with 40 cycles of 95° C. (10 sec) and 58° C. (30 sec). Melt curves based on incremental 0.5° C. increases are determined for new assays to test for uniformity of amplified products. Reaction conditions are modified as needed depending on initial test results. ‘Working’ assays are selected based on clear RNA-dependent amplification and absence of product in ‘ntc’ reactions. The following assay primers are used: […]
qPCR reactions of cultured monocyte cDNAs. One μL total cellular cDNA per reaction is used in triplicate reactions for each test gene, and for each culture treatment. SYBR-Green reactions were run on a Continuous Fluorescence real-time thermocycler and analyzed. Cycle threshold (Ct) values are recorded for each replicate reaction, and are then averaged and normalized against mean Ct values from one or more control genes. Fold-expression differences relative to untreated cells are determined using the 2^−ΔΔCt method as previously described. […] Data are also evaluated for each gene with regard to sensitivity, maximally effective concentration of curcuminoid, response to Aβ, and overall magnitude of fold-expression changes. […]

[1] = Metabolic stability in human S9 fraction; assay type: in vitro ADME; settings: read-out: Half life, t1/2 S9
[2] = Metabolic stability in human liver microsomes; assay type: in vitro ADME; settings: human, read-out: Half life, t1/2 HLM
MGAT3 [3] = assay: MGAT3 expression in response to oxidative stress (H2O2) in neuroblastoma cells; assay type: cell-based, human; settings: H2O2, data not shown
Protocol: Gene expression in response to oxidative stress. […] The neuroblastoma SHSY5Y and wtSOD^+ overexpressing cells were subjected to varying concentrations of hydrogen peroxide (H2O2; 0.5-5 mM) for varying times. After 1, 2, and 3 hours of incubation, cells were harvested, total RNAs were isolated, and prepared cDNAs were used in qPCR experiments to quantify normalized mRNA levels. MGAT3 expression in untransfected cells increased in relation to oxidative stress conditions, with peak expression (>200-fold increased) at 2-3 hours in the presence of 2.5 mM H2O2. Again, increased SOD1 expression appeared to potentiate MGAT3 expression, with higher maximal MGAT3 expression (>300-fold increased) observed in the wtSOD^+ line, and at lower H2O2 concentrations (e.g. 0.5 mM). […] Further, curcumins may potentiate the cellular response to oxidative stress and may therefore have a protective effect.

TLR 5 = TLR 5 transcription ratio, AD patient / control PBMCs (qPCR); assay type: cell-based, human; settings: Aβ stimulation
Protocol: (§4) qPCR reactions of cultured monocyte cDNAs. One μL total cellular cDNA per reaction is used in triplicate reactions for each test gene, and for each culture treatment. SYBR-Green reactions were run on a Continuous Fluorescence real-time thermocycler and analyzed. Cycle threshold (Ct) values are recorded for each replicate reaction, and are then averaged and normalized against mean Ct values from one or more control genes. Fold-expression differences relative to untreated cells are determined using the 2^−ΔΔCt method as previously described. Data from the curcumin concentration range are plotted in order to determine EC50 values (concentrations producing one-half maximal stimulant activity), which are used for comparisons of potency between different compounds. Data are also evaluated for each gene with regard to sensitivity, maximally effective concentration of curcuminoid, response to Aβ, and overall magnitude of fold-expression changes.
(§5) MGAT3 and/or TLR transcription were tested by qPCR in human monocyte cells treated with curcuminoids and compared the results to those treated with vehicle (Table 7). As discussed above, activation or up-regulation of macrophage MGAT3 or TLR's results in many functional outcomes, including the enhancement of […] and removal of Aβ, increased apoptosis, secretion of inflammatory cytokines, and other anti-AD antimicrobial activities. […]

TLR3 = TLR3 gene expression by qPCR in U-937 human monocytic cells treated with curcumins plus Aβ; assay type: cell-based
Protocol: as §1, §2, §3, §4
Data showing in vitro up-regulation of genes associated with Aβ phagocytosis in response to curcumins. Natural curcumins and synthetic analogs were tested in U-937 human monocyte cells in vitro for their ability to modulate expression of the genes MGAT3 and TLRs −2, −3, and −4. […]

TLR 10 = TLR 10 transcription ratio, AD patient / control PBMCs (qPCR); assay type: cell-based, human; settings: Aβ stimulation
Protocol: as §4, §5

TLR 8 = TLR 8 transcription ratio, AD patient / control PBMCs (qPCR); assay type: cell-based, human; settings: Aβ stimulation
Protocol: as §4, §5

MGAT3 [4] = assay: MGAT3 transcription ratio, AD patient / control PBMCs (qPCR); assay type: cell-based, human; settings: Aβ stimulation
How it was run: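 Via qPCR on cultured human monocyte cDNA, curcuminoid-treated versus vehicle, with Aβ stimulation, in AD patient and control cells. SYBR-Green triplicate reactions; Ct averaged, normalised to control genes, fold change by 2^−ΔΔCt. EC50 taken from curcumin concentration-response data.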

Q: What does the source list for `O=C(/C=C(O)/C=C/c1ccc(O)cc1)/C=C/c1ccc(O)cc1` [Compound 1, 5-Hydroxy-1,7-bis-(4-hydroxy-phenyl)-hepta-1,4,6-trien-3-one, reference compound]?
A: Relative gene expression TLR2, increased expression relative to control cells (TLR2): + ((+) <20-fold); half-life [1]: 4 min; half-life [2]: 16.4 min; Effect on MGAT3 expression in response to oxidative stress (MGAT3 [3]): enhance MGAT3 expression; Relative ratio of TLR 5 transcription in AD patient / control PBMC's (TLR 5): TLR 5 +++ ((+++ to ++++) indicates a ratio of 2.0 and above); TLR3 expression response (in words) (TLR3; U-937, plus Aβ (FIG. 3)): limited response; Relative gene expression TLR3, increased expression relative to control cells (TLR3; human monocytic cells (U-937), curcumin plus Aβ): + ((+) <20-fold); Relative ratio of TLR 10 transcription in AD patient / control PBMC's (TLR 10): TLR 10 ++ ((++) indicates a ratio of 1.5-2.0); Relative ratio of TLR 8 transcription in AD patient / control PBMC's (TLR 8): TLR 8 + ((+) indicates a ratio of 1.0-1.5); IC50 (Anti-oxidant activity): > 250 µM; Relative ratio of MGAT3 transcription in AD patient / control PBMC's (MGAT3 [4]): ++ ((++) indicates a ratio of 1.5-2.0)
